Source: patent publication US9624215B2, “Amine derivative or salt thereof” (TOYAMA CHEMICAL CO., LTD., priority 2012, dated 2017)

Experiments:
[1] = system: normal human neonatal foreskin epidermal keratinocytes (NHEK-F); experiment: Cell proliferation inhibition test; type: cell-based; details: Keratinocyte, 72 h, NHEK-F cells, three days incubation, ATPlite or CellTiterGlo, read-out: IC50 (concentration of the compound at which the cell count is reduced by 50%)
Summary of the method: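 IC50 is the compound level halving cell count relative to untreated wells, with counts from ATP-based luminescence (ATPlite or CellTiterGlo). Readout followed 3 days of compound exposure of overnight-attached neonatal foreskin keratinocytes (2×10^3/well, Humedia-EG2 medium).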

[2] = system: TNFα production in LPS-stimulated Raw264.7 cells; experiment: TNFα production inhibition test; type: cell-based; details: Mus musculus, test compound 1 μmol/L, LPS 1 μg/mL, 16 hours, ELISA, read-out: Inhibition rate of TNFα production
Description: 7×10^4 mouse macrophage-derived cell line Raw264.7 cells were suspended in 100 μL of RPMI1640 medium containing 10% fetal bovine serum, plated in a 96-well plate and incubated overnight. The culture supernatant was removed and the test compound diluted in RPMI1640 medium containing 1% fetal bovine serum (final concentration: 1 μmol/L) was added. One hour after the addition, LPS (B4:0111) (Sigma-Aldrich, L2630) was added to a final concentration of 1 μg/mL. 16 hours after the stimulation, the culture supernatant was collected and the amount of TNFα produced in the culture supernatant was determined using ELISA kit (R&D Systems, MTA00B).
The inhibition rate was calculated from the following formula. Inhibition rate (%)=100−(amount of TNFα produced in the presence of test compound/amount of TNFα produced in the absence of test compound)×100

SMILES | IC50 [1] | inhibition at 1 µM [2]
O=C(O)c1cc(Cl)ccc1Nc1ccc2c(c1)oc(=O)n2Cc1ccccc1 [Example 61, 2-((3-benzyl-2-oxo-2,3-dihydrobenzo[d]oxazol-6-yl)amino)-5-chlorobenzoic acid] | 10 to 100 nM | ≥ 50%
O=C(O)c1cc(C2CC2)ccc1Nc1ccc2c(c1)CC(=O)N2CC1CC1 [Example 108, 5-cyclopropyl-2-((1-(cyclopropylmethyl)-2-oxoindolin-5-yl)amino)benzoic acid] | 10 to 100 nM | ≥ 50%
O=C(O)c1cc(Cl)ccc1Nc1ccc2c(c1)CN(c1ccccc1)C2=O [Example 281, 5-chloro-2-((1-oxo-2-phenylisoindolin-5-yl)amino)benzoic acid] | 100 to 1000 nM | ≥ 50%
O=C(O)c1cc(Cl)ccc1Nc1cnc2c(ccn2Cc2ccccc2)c1 [Example 11, 2-((1-benzyl-1H-pyrrolo(2,3-b)pyridin-5-yl)amino)-5-chlorobenzoic acid] | 10 to 100 nM | ≥ 50%
CCCCn1ccc2cc(Nc3ccc(Cl)cc3C(=O)O)ccc21 [Example 255, 2-((1-butyl-1H-indol-5-yl)amino)-5-chlorobenzoic acid] | 10 to 100 nM | ≥ 50%
O=C(O)c1cc(C2CC2)ccc1Nc1ccc2c(c1)sc(=O)n2Cc1ccccc1 [Example 73, 2-((3-benzyl-2-oxo-2,3-dihydrobenzo[d]thiazol-6-yl)amino)-5-cyclopropylbenzoic acid] | ≤ 10 nM | ≥ 50%
O=C(O)c1cc(Cl)ccc1Nc1ccc2c(cnn2Cc2ccccc2)c1 [Example 21, 2-((1-benzyl-1H-indazol-5-yl)amino)-5-chlorobenzoic acid] | ≤ 10 nM | ≥ 50%
O=C(O)c1cc(Cl)ccc1Nc1ccc2c(c1)sc(=O)n2Cc1ccccc1 [Example 67, 2-((3-benzyl-2-oxo-2,3-dihydrobenzo[d]thiazol-6-yl)amino)-5-chlorobenzoic acid] | 10 to 100 nM | ≥ 50%
CC(C)(C)c1cc2cc(Nc3ccc(C4CC4)cc3C(=O)O)ccc2[nH]1 [Example 110, 2-((2-(tert-butyl)-1H-indol-5-yl)amino)-5-cyclopropylbenzoic acid] | 10 to 100 nM | ≥ 50%
O=C(O)c1cc(C2CC2)ccc1Nc1ccc2c(c1)n(CC(F)(F)F)c(=O)n2-c1ccccc1 [Example 80, 5-cyclopropyl-2-((2-oxo-1-phenyl-3-(2,2,2-trifluoroethyl)-2,3-dihydro-1H-benzo[d]imidazol-5-yl)amino)benzoic acid] | 10 to 100 nM | ≥ 50%
Cn1c(=O)n(-c2ccccc2)c2ccc(Nc3ccc(C4CC4)cc3C(=O)O)cc21 [Example 78, 5-cyclopropyl-2-((3-methyl-2-oxo-1-phenyl-2,3-dihydro-1H-benzo[d]imidazol-5-yl)amino)benzoic acid] | 10 to 100 nM | ≥ 50%
O=C(O)c1cc(Cl)ccc1Nc1ccc2c(ccn2C2CC2)c1 [Example 98, 5-chloro-2-((1-(cyclopropyl)-1H-indol-5-yl)amino)benzoic acid] | 10 to 100 nM | ≥ 50%
O=C(O)c1cc(Cl)ccc1Nc1ccc2c(c1)CCN(Cc1ccccc1)C2=O [Example 265, 2-((2-benzyl-1-oxo-1,2,3,4-tetrahydroisoquinolin-6-yl)amino)-5-chlorobenzoic acid] |  | ≥ 50%
O=C(O)c1cc(C2CC2)ccc1Nc1ccc2c(c1)CN(Cc1ccccc1)C2=O [Example 287, 2-((2-benzyl-1-oxoisoindolin-5-yl)amino)-5-cyclopropylbenzoic acid] |  | ≥ 50%
O=C(O)c1cc(Cl)ccc1Nc1ccc2c(c1)[nH]c(=O)n2Cc1ccccc1 [Example 63, 2-((1-benzyl-2-oxo-2,3-dihydro-1H-benzo[d]imidazol-5-yl)amino)-5-chlorobenzoic acid] |  | ≥ 50%
NC(=O)c1ccc(-n2ccc3cc(Nc4ccc(C5CC5)cc4C(=O)O)ccc32)cc1 [Example 106-2, 2-((1-(4-Carbamoylphenyl)-1H-indol-5-yl)amino)-5-cyclopropylbenzoic acid] |  | ≥ 50%
